Earlier results as cited in article PMC7401249 (Marine Drugs, 2020).
“Also recorded” adds a separate entry of the source.

| Substance | inhibition of CaV3.1 current over CaV3.2 (CaV3.1) | hCaV3.2 current block among three CaV3.x subtypes (hCaV3.2) | NaV1.7 block (NaV1.7) |
| --- | --- | --- | --- |
| ProTx-I | selective inhibition | – | – |
| ProTx-II | – | selectively block the hCaV3.2 current | NaV1.7 selective blocker; also recorded: inhibits NaV1.7 |
